Experimental data published in ChEMBL document CHEMBL5380782, “Design, Biological Evaluation, and Computer-Aided Analysis of Dihydrothiazepines as Selective Antichlamydial Agents” (J Med Chem, 2023).
Values after ≈ are worked out from the molar mass of the structure shown. Active and inactive are the calls of the source. No cut-off for these calls is given here.

Columns and labels:
Chlamydia trachomatis [1] = assay: Antibacterial activity against Chlamydia trachomatis serovar L2 infected in HEp-2 cells assessed as bacterial growth inhibition incubated for 16 hrs by IFA assay; assay type: functional, organism-based; details: serovar L2, HEp-2, 16 h
Chlamydia trachomatis [2] = assay: Antibacterial activity against Chlamydia trachomatis serovar L2 infected in HEp-2 cells assessed as bacterial growth inhibition at 25 to 0.39 ug/ml incubated for 16 hrs by IFA assay; assay type: functional, organism-based; details: dose 25-0.39 µg/ml
Chlamydia trachomatis [3] = assay: Inhibition of recombinant Chlamydia trachomatis ClpX ATPase activity assessed as reduction in ATP consumption at 25 ug/ml incubated for 60 mins by Kinase Glo assay relative to control; details: dose 25.0 µg/ml
[4] = Cytotoxicity against HEK293 cells assessed as cell survival at 256 ug/ml incubated for 20 hrs by XTT assay relative to control; assay type: toxicity, cell-based; details: human, at 256 µg/mL, read-out: Survival
[5] = Cytotoxicity against HEp-2 cells assessed as cell viability at 256 ug/ml incubated for 20 hrs by XTT assay relative to control; assay type: toxicity, cell-based; details: human, at 256 µg/mL, read-out: Activity
[6] = Cytotoxicity against HEC-1-A cells assessed as cell survival at 256 ug/ml incubated for 20 hrs by XTT assay relative to control; assay type: toxicity, cell-based; details: human, at 256 µg/mL, read-out: Survival
[7] = Cytotoxicity against HEK293 cells assessed as cell viability at 25 ug/ml incubated for 20 hrs by XTT assay relative to control; assay type: toxicity, cell-based; details: human, at 25 µg/mL, read-out: Activity
Chlamydia trachomatis [8] = assay: Antibacterial activity against Chlamydia trachomatis L2 infected in HEp-2 cells assessed as inhibition of infectious progeny incubated for 24 hrs by fluorescence microscopy; assay type: functional, organism-based; details: L2, HEp-2, 24 h
Pichia kudriavzevii = assay: Antimicrobial activity against Pichia kudriavzevii 6558 assessed as microbial growth inhibition by broth microdilution method; assay type: functional
Nakaseomyces glabratus = assay: Antimicrobial activity against Candida glabrata 2001 assessed as microbial growth inhibition by broth microdilution method; assay type: functional
Candida tropicalis = assay: Antimicrobial activity against Candida tropicalis 750 assessed as microbial growth inhibition by broth microdilution method; assay type: functional
Salmonella typhimurium [9] = assay: Mutagenicity in Salmonella typhimurium TA100 assessed as number of revertants per plate at 2.5 ug pretreated for 90 mins measured after 66 hrs in presence of S9 by AMES test (reference value: 201 +/- 9.90); assay type: functional, Salmonella enterica subsp. enterica serovar Typhimurium; details: dose 2.5 µg; time 67.5 hrs
Salmonella typhimurium [10] = assay: Mutagenicity in Salmonella typhimurium TA98 assessed as number of revertants per plate at 2.5 ug pretreated for 90 mins measured after 66 hrs in presence of S9 fraction by AMES test (reference value: 24.33 +/- 9.50); assay type: functional, Salmonella enterica subsp. enterica serovar Typhimurium; details: dose 2.5 µg; time 67.5 hrs
HEp-2 = assay: Cytotoxicity against HEp-2 cells assessed as cell viability at 25 ug/ml incubated for 20 hrs by XTT assay relative to control; assay type: toxicity, cell-based; details: human, hep-2, 20 h, at 25 µg/mL
Acinetobacter baumannii = assay: Antimicrobial activity against Acinetobacter baumannii 2208 assessed as microbial growth inhibition incubated for 24 hrs by TTC staining based assay; assay type: functional
[11] = test system: Bacteroides thetaiotaomicron; assay: Antimicrobial activity against Bacteroides thetaiotaomicron DSM 2079 assessed as microbial growth inhibition incubated for 48 hrs; assay type: functional
Blautia producta = assay: Antimicrobial activity against Blautia producta DSM 2950 assessed as microbial growth inhibition incubated for 48 hrs; assay type: functional
[12] = test system: Lactiplantibacillus plantarum; assay: Antimicrobial activity against Lactobacillus plantarum DSM 20174 assessed as microbial growth inhibition incubated for 24 hrs; assay type: functional
Staphylococcus aureus = assay: Antimicrobial activity against Staphylococcus aureus USA 300 JE2 assessed as microbial growth inhibition incubated for 24 hrs by TTC staining based assay; assay type: functional
Pseudomonas aeruginosa = assay: Antimicrobial activity against Pseudomonas aeruginosa PA01 assessed as microbial growth inhibition incubated for 24 hrs by TTC staining based assay; assay type: functional
Thomasclavelia ramosa = assay: Antimicrobial activity against Clostridium ramosum DSM 1402 assessed as microbial growth inhibition incubated for 48 hrs; assay type: functional
Anaerostipes caccae = assay: Antimicrobial activity against Anaerostipes caccae […] assessed as microbial growth inhibition incubated for 48 hrs; assay type: functional
Escherichia coli [13] = assay: Antimicrobial activity against Escherichia coli K12 assessed as microbial growth inhibition incubated for 24 hrs by TTC staining based assay; assay type: functional
Escherichia coli [14] = assay: Antimicrobial activity against non-pathogenic Escherichia coli ATCC MG1655 assessed as microbial growth inhibition incubated for 24 hrs by TTC staining based assay; assay type: functional
[15] = test system: Lacticaseibacillus rhamnosus; assay: Antimicrobial activity against Lactobacillus rhamnosus CGMCC 1.3724 assessed as microbial growth inhibition incubated for 24 hrs by TTC staining based assay; assay type: functional
Salmonella typhimurium [16] = assay: Mutagenicity in Salmonella typhimurium TA98 assessed as number of revertants per plate at 10 ug pretreated for 90 mins measured after 66 hrs by AMES test (reference value: 25.67 +/- 5.51); assay type: functional, Salmonella enterica subsp. enterica serovar Typhimurium; details: dose 10 µg; time 67.5 hrs

Row | SMILES | IC50 (Chlamydia trachomatis [1]; read-out: IC50) | IC50 (Chlamydia trachomatis [1]; read-out: pIC50 (converted)) [µM] | also measured
1 | N#Cc1cccc(C2Sc3ccccc3NC3=C2C(=O)c2ccccc23)c1 (stereo not given) | 9 µg/mL | – | –
2 | O=C1C2=C(Nc3ccccc3SC2c2ccc(Cl)cc2)c2ccccc21 (stereo not given) | 6.59 µg/mL | 17.4 | –
3 | COc1cccc(C2C3=C(Nc4ccccc4S2(=O)=O)c2ccccc2C3=O)c1 (stereo not given) | 10 µg/mL | – | –
4 | O=C1C2=C(Nc3ccccc3SC2c2ccc(O)cc2)c2ccccc21 (stereo not given) | 14.4 µg/mL | 39.8 | –
5 | O=C1C2=C(Nc3ccccc3SC2c2cccc(O)c2)c2ccccc21 (stereo not given) | 16.5 µg/mL | 45.7 | –
6 | O=C1C2=C(Nc3ccccc3SC2c2ccccc2C(=O)O)c2ccccc21 (stereo not given) | – | – | inhibition (Chlamydia trachomatis [2]): inactive; inhibition (Chlamydia trachomatis [3]): 20%
7 | Cc1cccc(C2Sc3ccccc3NC3=C2C(=O)c2ccccc23)c1F (stereo not given) | 4.69 µg/mL | 12.6 | viability at 20 h, 256 ug/ml [4]: ≥ 75%; viability at 20 h, 256 ug/ml [5]: 50%; viability at 20 h, 256 ug/ml [6]: ≥ 75%; inhibition (Chlamydia trachomatis [3]): 20%; viability at 20 h, 25 ug/ml [7]: 78%; IC50 (Chlamydia trachomatis [8]): 7.13 µg/mL (≈ 19.1 µM)
8 | COc1ccc(C2Sc3ccccc3N=C3C2=C(O)c2ccccc23)cc1 (stereo not given) | 14.7 µg/mL | – | –
9 | O=C1C2=C(Nc3ccccc3SC2c2ccc([N+](=O)[O-])cc2)c2ccccc21 (stereo not given) | 9.01 µg/mL | – | –
10 | O=C1C2=C(Nc3ccccc3SC2c2ccc(OCc3ccccc3)cc2)c2ccccc21 (stereo not given) | 22.8 µg/mL | 51.3 | –
11 | O=C1C2=C(Nc3ccccc3SC2c2ccc(OC(F)(F)F)cc2)c2ccccc21 (stereo not given) | 7.44 µg/mL | 17.4 | –
12 | O=C1C2=C(Nc3cc(C(F)(F)F)ccc3SC2c2ccc(Br)cc2)c2ccccc21 (stereo not given) | 6.93 µg/mL | – | –
13 | O=C1C2=C(Nc3ccccc3SC2c2cccc(C(F)(F)F)c2)c2ccccc21 (stereo not given) | 5.18 µg/mL | – | –
14 | OC(Cn1cncn1)(Cn1cncn1)c1ccc(F)cc1F [FLUCONAZOLE] | – | – | MIC (Pichia kudriavzevii): 16 µg/mL (≈ 52.2 µM); MIC (Nakaseomyces glabratus): 2 µg/mL (≈ 6.53 µM); MIC (Candida tropicalis): 0.5 µg/mL (≈ 1.63 µM)
15 | COc1ccccc1C1Sc2ccc(C(F)(F)F)cc2NC2=C1C(=O)c1ccccc12 (stereo not given) | 2.46 µM | 2.51 | viability at 20 h, 256 ug/ml [5]: 100%
16 | COc1ccc(C2SCCNC3=C2C(=O)c2ccccc23)cc1 (stereo not given) | 16.1 µg/mL | – | –
17 | Cc1ccc(C2Sc3ccccc3NC3=C2C(=O)c2ccccc23)cc1 (stereo not given) | 6.72 µg/mL | – | –
18 | O=C1C2=C(Nc3ccccc3SC2c2ccc(Cl)cc2Cl)c2ccccc21 (stereo not given) | 6.37 µg/mL | 15.5 | –
19 | N#Cc1ccc(C2Nc3ccccc3NC3=C2C(=O)c2ccccc23)cc1 (stereo not given) | 20.9 µg/mL | – | –
20 | Nc1ccc(C2Sc3ccccc3NC3=C2C(=O)c2ccccc23)cc1 (stereo not given) | 17.6 µg/mL | 49 | –

Row | SMILES | IC50 (Chlamydia trachomatis [1]; read-out: IC50) | IC50 (Chlamydia trachomatis [1]; read-out: pIC50 (converted)) [µM] | also measured
21 | N#Cc1ccc(C2SCCNC3=C2C(=O)c2ccccc23)cc1 (stereo not given) | – | – | inhibition (Chlamydia trachomatis [2]): inactive; inhibition (Chlamydia trachomatis [3]): 20%
22 | Nc1ccc2cc3ccccc3cc2c1 [2-AMINOANTHRACENE] | – | – | Activity (Salmonella typhimurium [9]): 1256; Activity (Salmonella typhimurium [10]): 137
23 | COc1ccc(C2Sc3ccc(C(F)(F)F)cc3NC3=C2C(=O)c2ccccc23)cc1 (stereo not given) | 12.3 µg/mL | 28.2 | –
24 | Cc1ccccc1C1Sc2ccccc2NC2=C1C(=O)c1ccccc12 (stereo not given) | 7.82 µM | 7.94 | –
25 | O=C1C2=C(Nc3ccccc3SC2c2cccc(Cl)c2)c2ccccc21 (stereo not given) | 4.79 µg/mL | 12.9 | –
26 | Cc1ccc(C2Nc3ccccc3NC3=C2C(=O)c2ccccc23)cc1 (stereo not given) | 15 µg/mL | – | –
27 | COc1ccccc1C1Sc2ccccc2NC2=C1C(=O)c1ccccc12 (stereo not given) | 3.32 µg/mL | 8.91 | viability at 20 h, 256 ug/ml [4]: ≥ 75%; viability at 20 h, 256 ug/ml [5]: 50%; viability at 20 h, 256 ug/ml [6]: ≥ 75%; Activity (HEp-2): 73%; IC50 (Chlamydia trachomatis [8]): 6.41 µg/mL (≈ 17.3 µM)
28 | O=C1C2=C(Nc3ccccc3SC2c2cccc([N+](=O)[O-])c2)c2ccccc21 (stereo not given) | 6.35 µg/mL | – | –
29 | O=C1C2=C(Nc3ccccc3SC2c2ccc(-c3ccccc3)cc2)c2ccccc21 (stereo not given) | – | – | inhibition (Chlamydia trachomatis [2]): inactive
30 | CC[C@H]1OC(=O)[C@H](C)[C@@H](O[C@H]2C[C@@](C)(OC)[C@@H](O)[C@H](C)O2)[C@H](C)[C@@H](O[C@@H]2O[C@H](C)C[C@H](N(C)C)[C@H]2O)[C@](C)(O)C[C@@H](C)CN(C)[C@H](C)[C@@H](O)[C@]1(C)O [AZITHROMYCIN] | – | – | MIC (Acinetobacter baumannii): < 1 µg/mL; MIC [11]: 0.5 µg/mL (≈ 0.668 µM); MIC (Blautia producta): < 0.06 µg/mL; MIC [12]: 2 µg/mL (≈ 2.67 µM); MIC (Staphylococcus aureus): 2 µg/mL (≈ 2.67 µM); MIC (Pseudomonas aeruginosa): 125 µg/mL (≈ 167 µM); MIC (Thomasclavelia ramosa): < 0.06 µg/mL; MIC (Anaerostipes caccae): > 125 µg/mL; MIC (Escherichia coli [13]): < 1 µg/mL; MIC (Escherichia coli [14]): 2 µg/mL (≈ 2.67 µM); IC50 (Chlamydia trachomatis [8]): 0.06 µg/mL (≈ 0.0801 µM); MIC [15]: 1 µg/mL (≈ 1.34 µM)
31 | O=C1C2=C(Nc3cc(C(F)(F)F)ccc3SC2c2cccs2)c2ccccc21 (stereo not given) | 6.53 µg/mL | – | –
32 | COc1ccc(C2Nc3ccccc3NC3=C2C(=O)c2ccccc23)cc1 (stereo not given) | 22.6 µg/mL | 53.7 | –
33 | CC(=O)Oc1ccc(C2Sc3ccccc3NC3=C2C(=O)c2ccccc23)cc1 (stereo not given) | 7.18 µg/mL | – | –
34 | O=C1C2=C(Nc3ccccc3SC2c2cccs2)c2ccccc21 (stereo not given) | 7.36 µg/mL | – | –
35 | N#Cc1ccccc1C1Sc2ccc(C(F)(F)F)cc2NC2=C1C(=O)c1ccccc12 (stereo not given) | 1.61 µM | 1.62 | viability at 20 h, 256 ug/ml [5]: 100%
36 | O=C(O)c1ccc(C2Sc3ccccc3NC3=C2C(=O)c2ccccc23)cc1 (stereo not given) | – | – | inhibition (Chlamydia trachomatis [2]): inactive
37 | O=C1C2=C(NCCSC2c2ccc(Br)cc2)c2ccccc21 (stereo not given) | 21.3 µg/mL | – | –
38 | Cc1ccc(C2SCCNC3=C2C(=O)c2ccccc23)cc1 (stereo not given) | 21.4 µg/mL | 69.2 | –
39 | N#Cc1ccc(C2Sc3ccccc3NC3=C2C(=O)c2ccccc23)cc1 (stereo not given) | 10.2 µg/mL | – | –
40 | Nc1ccc([N+](=O)[O-])cc1N | – | – | Activity (Salmonella typhimurium [16]): 34.5
